Structures can show the parent of a compound that is named as a salt.

One experiment concerns Colo-205. Briefly: In vitro proliferation assay (MTT), Colo-205. The format is cell-based. The note with it: Homo sapiens, COLO 205; MTT assay; value (SD, n) where given; read-out: Colo-205 Colon (IC50 µM). As to the method:
(§1) The proliferation of tumor cells can be measured using a tetrazolium salt-based assay known as the MTT (3-[4,5-Dimethylthiazol-2-yl]-2,5-diphenyltetrazolium bromide) assay. The proliferation test is performed essentially as described by Carmichael et al., Cancer Res. 47: 936-942, 1987. For the assay, the cell lines are plated onto 96 well plates at 1000 to 2500 cells/well (depending on the properties of the individual cell lines), left to attach and recover overnight. […] After 3 days, the cells are incubated with MTT dye (3-[4,5-Dimethylthiazol-2-yl]-2,5-diphenyltetrazolium bromide, Sigma # M5655, 10 mg/ml in Hank's Buffered Saline) to estimate the amount of live cells remaining vs. concentration for the test compounds. Specifically, MTT solution is added to a final concentration of […] and the plates incubated at 37 C for 2 to 4 hr. The MTT and culture medium is then removed from the cultures and 200 µl of DMSO is added to solubilize the dye from the cell layer. The absorbance at 570 nm is determined for each culture using a Spectramax plate reader (Molecular Devices).
(§2) IC50s were determined from the raw data from either the MTT or SRB assays.

Another experiment concerns MDA-MB-435. Briefly: In vitro proliferation assay (MTT), MDA-MB-435. To be noted: Homo sapiens, MDA-MB-435, MTT assay; value (SD, n) where given; read-out: MB-435 Breast (IC50 µM). The experiment is classed as cell-based, human. A digest of the protocol:
(§3)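 Tetrazolium (MTT) reduction measures live cells remaining after 3 days with test compound, following overnight attachment at 1000–2500 cells/well. Dye is taken up in DMSO and read at 570 nm.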
In general terms: Tetrazolium dyes change colour on reduction, which living cells bring about.

Another experiment addresses cdk4/cyclin D1 (Homo sapiens, UniProt P11802). The experiment can be described thus: Cyclin-dependent kinase assay, cdk4/cyclin D1. The experiment is classed as biochemical. The note with it: cyclin D1/cdk4; GST-pRb substrate, 10 µM ATP.
The subject of a further experiment is Jurkat. The experiment can be described thus: In vitro proliferation assay (MTT), Jurkat. The experiment is classed as cell-based. To be noted: Homo sapiens, MTT assay, value (SD, n) where given, read-out: Jurkat Leuk. (IC50 µM). Here is the method: as §1, §2
(§4) All of the cell lines were obtained from American Type Tissue Collection, with the ATCC accession number in parentheticals. MCF-7 and MDA-MB-231 cells were grown in improved minimum essential medium (Biofluids) without phenol red, supplemented with 5 % fetal bovine serum, 0.01 mg/ml gentamicin and 3 mM L-glutamine. All of the other cell lines were grown in RPMI 1640 medium (Life Technologies) supplemented with 5 % fetal bovine serum, 0.01 mg/ml gentamicin and 3 mM L-glutamine TABLE 3

The target of another experiment is cdk1/cyclin B (Homo sapiens, UniProt P06493). Briefly: Cyclin-dependent kinase assay, cdk1/cyclin B. The note with it: CDK1 IC50, nM, Histone H1, 10 µM ATP.
A further experiment has as its system PC-3. Briefly: In vitro proliferation assay (MTT), PC-3. The experiment is classed as cell-based, human. To be noted: Homo sapiens, PC-3, MTT assay; value (SD, n) where given; read-out: PC-3 Prostate (IC50 µM). A digest of the protocol:
as §3

In a further experiment the test system is HL-60. The experiment can be described thus: In vitro proliferation assay (MTT), HL-60. The note with it: Homo sapiens, HL-60; MTT assay; value (SD, n) where given; read-out: HL-60 Leuk. (IC50 µM). The experiment is classed as cell-based. Here is the method: as §1, §2, §4
The test system of the next experiment is NCI-H460. The experiment can be described thus: In vitro proliferation assay (MTT), NCI-H460. The format is cell-based. To be noted: Homo sapiens, NCI-H460; MTT assay; value (SD, n) where given; read-out: H-460 Lung (IC50 µM). As to the method:
as §1, §2, §4

The target of the next experiment is cdk2/cyclin E (Homo sapiens, UniProt P24941). Briefly: Cyclin-dependent kinase assay, cdk2/cyclin E. To be noted: CDK2 IC50, nM, GST-pRb substrate, 10 µM ATP.

Chain of cdk1/cyclin B (P06493 whole entry): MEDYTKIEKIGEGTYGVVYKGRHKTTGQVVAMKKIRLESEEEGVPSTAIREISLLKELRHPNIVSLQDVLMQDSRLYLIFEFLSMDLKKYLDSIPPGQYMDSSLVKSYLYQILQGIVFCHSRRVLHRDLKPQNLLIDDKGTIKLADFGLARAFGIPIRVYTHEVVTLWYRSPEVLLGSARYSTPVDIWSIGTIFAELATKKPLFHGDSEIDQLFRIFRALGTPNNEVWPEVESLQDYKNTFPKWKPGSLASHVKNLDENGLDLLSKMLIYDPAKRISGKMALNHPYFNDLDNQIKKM
Chain of cdk1/cyclin B (P14635 whole entry partner): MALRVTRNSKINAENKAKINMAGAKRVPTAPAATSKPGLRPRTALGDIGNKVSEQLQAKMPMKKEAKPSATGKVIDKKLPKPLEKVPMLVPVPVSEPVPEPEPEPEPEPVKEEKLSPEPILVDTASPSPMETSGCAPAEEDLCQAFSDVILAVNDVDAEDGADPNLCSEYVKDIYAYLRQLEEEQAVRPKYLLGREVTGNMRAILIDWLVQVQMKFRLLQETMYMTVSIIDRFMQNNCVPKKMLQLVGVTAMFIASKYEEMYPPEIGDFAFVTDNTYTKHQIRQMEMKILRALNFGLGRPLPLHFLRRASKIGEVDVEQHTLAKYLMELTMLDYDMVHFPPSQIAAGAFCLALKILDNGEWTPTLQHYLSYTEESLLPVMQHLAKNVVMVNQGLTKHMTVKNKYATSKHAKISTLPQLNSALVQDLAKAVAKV
Chain of cdk4/cyclin D1 (P11802 whole entry): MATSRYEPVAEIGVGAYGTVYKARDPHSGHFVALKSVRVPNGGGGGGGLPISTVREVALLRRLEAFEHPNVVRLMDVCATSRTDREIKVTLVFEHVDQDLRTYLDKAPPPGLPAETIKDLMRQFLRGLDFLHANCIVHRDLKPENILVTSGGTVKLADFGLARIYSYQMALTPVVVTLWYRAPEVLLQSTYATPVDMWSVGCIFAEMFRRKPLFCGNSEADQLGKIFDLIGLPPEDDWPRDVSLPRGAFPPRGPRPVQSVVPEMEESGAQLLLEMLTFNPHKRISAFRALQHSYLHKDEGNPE
Chain of cdk4/cyclin D1 (P24385 whole entry partner): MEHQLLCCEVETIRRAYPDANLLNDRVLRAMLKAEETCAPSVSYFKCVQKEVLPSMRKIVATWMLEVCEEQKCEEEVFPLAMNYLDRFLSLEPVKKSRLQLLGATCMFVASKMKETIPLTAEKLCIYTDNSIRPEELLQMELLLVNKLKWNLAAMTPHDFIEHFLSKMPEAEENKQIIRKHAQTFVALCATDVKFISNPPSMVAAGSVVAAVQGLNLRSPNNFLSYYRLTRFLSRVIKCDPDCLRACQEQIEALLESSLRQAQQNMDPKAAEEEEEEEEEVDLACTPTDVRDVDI

The term IC50 denotes the concentration that inhibits the measured activity by half. Consider `N[C@H]1CC[C@H](Nc2nc(NC3CCN(C(=O)Nc4ccc(Br)cc4)CC3)c3ncn(C4CCCC4)c3n2)CC1` [compound 162, trans-4-[2-(4-Amino-cyclohexylamino)-9-cyclopentyl-9H-purin-6-ylamino]-piperidine-1-carboxylic acid (4-bromo-phenyl)-amide dihydrochloride], for which the IC50 in the experiment on Colo-205 stood at 0.04 µM; with MDA-MB-435 it was 0.14 µM; against cdk4/cyclin D1 it was 0.603 µM; in the experiment with Jurkat it was 0.19 µM; on cdk1/cyclin B, 15 nM; in the experiment with PC-3, 0.12 µM. In addition, the IC50 in the experiment on HL-60 is less than 0.02 µM; in the experiment with NCI-H460, 0.18 µM; against cdk2/cyclin E, 72 nM.
Turning to `N[C@H]1CC[C@H](Nc2nc(NC3CCN(S(=O)(=O)c4ccc(C(F)(F)F)cc4[N+](=O)[O-])CC3)c3ncn(C4CCCC4)c3n2)CC1` [compound 132, trans-N^2-(4-Amino-cyclohexyl)-9-cyclopentyl-N^6-[1-(2-nitro-4-trifluoromethyl-benzenesulfonyl)-piperidin-4-yl]-9H-purine-2,6-diamine dihydrochloride], the IC50 amounted to 0.04 µM in the experiment with Colo-205; 0.21 µM in the experiment on MDA-MB-435; 0.59 µM against cdk4/cyclin D1; 0.21 µM with Jurkat; 74 nM at cdk1/cyclin B; 0.15 µM in the experiment with PC-3. Also, the IC50 in the experiment with HL-60 is less than 0.02 µM; with NCI-H460, 0.12 µM; at cdk2/cyclin E it was 35 nM.
With `N[C@H]1CC[C@H](Nc2nc(NC3CCN(C(=O)Nc4ccc(F)cc4F)CC3)c3ncn(C4CCCC4)c3n2)CC1` [compound 166, trans-4-[2-(4-Amino-cyclohexylamino)-9-cyclopentyl-9H-purin-6-ylamino]-piperidine-1-carboxylic acid (2,4-difluoro-phenyl)-amide dihydrochloride], the IC50 is 0.02 µM with Colo-205; 0.03 µM in the experiment with MDA-MB-435; 0.07 µM in the experiment on Jurkat; 0.06 µM with PC-3; 0.01 µM in the experiment on HL-60; 0.08 µM with NCI-H460.
For the compound `N[C@H]1CC[C@H](Nc2nc(NC3CCN(S(=O)(=O)c4ccc([N+](=O)[O-])cc4)CC3)c3ncn(C4CCCC4)c3n2)CC1` [compound 120, trans-N^2-(4-Amino-cyclohexyl)-9-cyclopentyl-N^6-[1-(4-nitro-benzenesulfonyl)-piperidin-4-yl]-9H-purine-2,6-diamine dihydrochloride], the IC50 in the experiment on Colo-205 is 0.1 µM; in the experiment with MDA-MB-435, 0.2 µM; in the experiment with Jurkat, 0.19 µM; in the experiment with PC-3, 0.22 µM; in the experiment on HL-60 it was less than 0.02 µM; in the experiment on NCI-H460 it was 0.27 µM.
Turning to `C=CCCOC(=O)N1CCC(Nc2nc(N[C@H]3CC[C@H](N)CC3)nc3c2ncn3C2CCCC2)CC1` [compound 100, trans-4-[2-(4-Amino-cyclohexylamino)-9-cyclopentyl-9H-purin-6-ylamino]-piperidine-1-carboxylic acid but-3-enyl ester dihydrochloride], the IC50 was found to be 0.11 µM in the experiment on Colo-205; 0.25 µM in the experiment on MDA-MB-435; 0.19 µM in the experiment with Jurkat; 60 nM against cdk1/cyclin B; 0.22 µM with PC-3; 0.05 µM in the experiment with HL-60. Moreover, the IC50 is 0.17 µM in the experiment on NCI-H460 and 50 nM against cdk2/cyclin E.
`N[C@H]1CC[C@H](Nc2nc(NC3CCN(C(=O)Nc4ccccc4Br)CC3)c3ncn(C4CCCC4)c3n2)CC1` [compound 168, trans-4-[2-(4-Amino-cyclohexylamino)-9-cyclopentyl-9H-purin-6-ylamino]-piperidine-1-carboxylic acid (2-bromo-phenyl)-amide dihydrochloride]: the IC50 in the experiment on Colo-205 is 0.16 µM; in the experiment with MDA-MB-435, 0.15 µM; at cdk4/cyclin D1, 0.111 µM; against cdk1/cyclin B, 29 nM; in the experiment on PC-3, 0.19 µM; with HL-60 it was 0.04 µM. The IC50 in the experiment on NCI-H460 was found to be 0.19 µM; on cdk2/cyclin E it was 52 nM.
As for `N[C@H]1CC[C@H](Nc2nc(NC3CCN(C(=O)COc4ccccc4)CC3)c3ncn(C4CCCC4)c3n2)CC1` [compound 28, trans-1-{4-[2-(4-Amino-cyclohexylamino)-9-cyclopentyl-9H-purin-6-ylamino]-piperidin-1-yl}-2-phenoxy-ethanone dihydrochloride], the IC50 came to 0.09 µM with Colo-205; 0.21 µM with MDA-MB-435; 0.14 µM against cdk4/cyclin D1; 20 nM on cdk1/cyclin B; 0.22 µM in the experiment on PC-3; 0.21 µM with NCI-H460. The IC50 against cdk2/cyclin E was determined as 52 nM.
With `N[C@H]1CC[C@H](Nc2nc(NC3CCN(S(=O)(=O)c4cc(Cl)cc(Cl)c4O)CC3)c3ncn(C4CCCC4)c3n2)CC1` [compound 117, trans-2-{4-[2-(4-Amino-cyclohexylamino)-9-cyclopentyl-9H-purin-6-ylamino]-piperidine-1-sulfonyl}-4,6-dichloro-phenol dihydrochloride], the IC50 with MDA-MB-435 was 39 µM; against cdk4/cyclin D1, 0.558 µM; in the experiment with Jurkat, 43.6 µM; against cdk1/cyclin B it was 290 nM; in the experiment with PC-3, 34.1 µM; with HL-60, 24.2 µM. At cdk2/cyclin E, this compound gave an IC50 of 31 nM.
On to `N[C@H]1CC[C@H](Nc2nc(NC3CCN(C(=O)c4cccs4)CC3)c3ncn(C4CCCC4)c3n2)CC1` [compound 10, trans-1-{4-[2-(4-Amino-cyclohexylamino)-9-cyclopentyl-9H-purin-6-ylamino]-piperidin-1-yl}-1-thiophen-2-yl-methanone dihydrochloride], for which the IC50 with Colo-205 was less than 0.02 µM; in the experiment on MDA-MB-435, 0.8 µM; against cdk4/cyclin D1, 0.761 µM; against cdk1/cyclin B, 49 nM; in the experiment with PC-3, 1.24 µM; with NCI-H460 it was 0.14 µM. At cdk2/cyclin E, this compound gave an IC50 of 57 nM.
As for `COc1ccc(C(=O)N2CCC(Nc3nc(N[C@H]4CC[C@H](N)CC4)nc4c3ncn4C3CCCC3)CC2)cc1` [compound 8, trans-1-{4-[2-(4-Amino-cyclohexylamino)-9-cyclopentyl-9H-purin-6-ylamino]-piperidin-1-yl}-1-(4-methoxy-phenyl)-methanone dihydrochloride], the IC50 with Colo-205 stood at 0.06 µM; with MDA-MB-435 it was 0.75 µM; on cdk4/cyclin D1 it was 0.711 µM; against cdk1/cyclin B, 74 nM; with PC-3, 0.86 µM; with NCI-H460 it was 0.18 µM. This compound also displayed an IC50 against cdk2/cyclin E of 137 nM.
In the case of `N[C@H]1CC[C@H](Nc2nc(NC3CCN(C(=O)COCc4ccccc4)CC3)c3ncn(C4CCCC4)c3n2)CC1` [compound 37, trans-1-{4-[2-(4-Amino-cyclohexylamino)-9-cyclopentyl-9H-purin-6-ylamino]-piperidin-1-yl}-2-benzyloxy-ethanone dihydrochloride], the IC50 in the experiment with Colo-205 was less than 0.02 µM; in the experiment with MDA-MB-435, 0.26 µM; at cdk4/cyclin D1 it was 1.7 µM; at cdk1/cyclin B, 15 nM; in the experiment with PC-3, 0.2 µM; in the experiment on NCI-H460, 0.23 µM. This compound displayed an IC50 against cdk2/cyclin E of 32 nM.

These data come from EP1377579B1 (Aventis Pharmaceuticals Inc., priority 2000, dated 2002).
